Values quoted from earlier work in US20030170332A1, “Flavonoid extract” (Enzo Nutraceuticals Limited., priority 2001, published 2003).

Key:
[1] = tested on: DNA damage; details: for Protection against DNA damage: in vivo (Duthie et al. 1997; Sierens et al. 2001)
[2] = tested on: carbonyl levels of immunoglobulin

SMILES | Protection against DNA damage [1] | Effect on protein oxidation of immunoglobulin ([2]; 5 weeks supplementation, 400 mg/day) | Carbonyl levels of immunoglobulin ([2]; 10 and 15 weeks supplementation, subjects with low baseline ascorbate, not in those with normal base line ascorbate) | DNA protection on increasing intake in the diet ([1]; in vivo (Beatty et al. 2000))
Oc1ccc([C@H]2COc3cc(O)ccc3C2)cc1 [equol] | did protect against DNA damage |  |  | 
O=C1O[C@H]([C@@H](O)CO)C(O)=C1O [vitamin C] |  | no significant effect | significantly reduced | 
O=c1c(-c2ccc(O)cc2)coc2cc(O)cc(O)c12 [genistein] | did protect against DNA damage |  |  | 
O=c1c(O)c(-c2cc(O)c(O)c(O)c2)oc2cc(O)cc(O)c12 [myricetin] | did protect against DNA damage |  |  | 
O=c1c(O)c(-c2ccc(O)c(O)c2)oc2cc(O)cc(O)c12 [quercetin] | did protect against DNA damage |  |  | did not result in increased DNA protection
